Reference: patent US7786108B2, “Compounds and method for treating dyslipidemia” (Eli Lilly and Company, priority 2004, dated 2010)

test system: transgenic mice that express both human CETP and human apolipoprotein A-1; experiment: In vivo assay of plasma lipids: elevation of HDL cholesterol; conditions: Mus musculus; single oral dose 30 mg/kg; HDL cholesterol in serum at 8 hr after administration; relative to a control; read-out: % HDL cholesterol increase
Source text: Additional serum lipids can be analyzed by enzymatic methods.

Structure (SMILES) | change in vivo at 30 mg/kg [%]
Cc1cc2c(c(C)c1C(F)(F)F)N(Cc1ccncc1)CCC[C@@H]2N(Cc1cc(C(F)(F)F)cc(C(F)(F)F)c1)c1nnn(C)n1 [Example 151, (S)-(3,5-Bis-trifluoromethyl-benzyl)-(7,9-dimethyl-1-pyridin-4-ylmethyl-8-trifluoromethyl-2,3,4,5-tetrahydro-1H-benzo[b]azepin-5-yl)-(2-methyl-2H-tetrazol-5-yl)-amine] | 165
Cc1cc2c(cc1C(F)(F)F)N(CC1CCC(CC(=O)O)CC1)CCCC2N(Cc1cc(C(F)(F)F)cc(C(F)(F)F)c1)c1nnn(C)n1 (stereo not shown) [Example 31, (4-{5-[(3,5-Bis-trifluoromethyl-benzyl)-(2-methyl-2H-tetrazol-5-yl)-amino]-7-methyl-8-trifluoromethyl-2,3,4,5-tetrahydro-benzo[b]azepin-1-ylmethyl}-cyclohexyl)-acetic acid] | 114
Cc1cc2c(cc1C(F)(F)F)N(CC1CCCC1)CCC[C@@H]2N(Cc1cc(C(F)(F)F)cc(C(F)(F)F)c1)c1nnn(CCO)n1 [Example 27, (S)-2-{5-[(3,5-Bis-trifluoromethyl-benzyl)-(1-cyclopentylmethyl-7-methyl-8-trifluoromethyl-2,3,4,5-tetrahydro-1H-benzo[b]azepin-5-yl)-amino]-tetrazol-2-yl}-ethanol] | 128
Cc1cc2c(cc1C(F)(F)F)N(C(=O)OC(C)(C)C)CCC[C@@H]2N(Cc1cc(C(F)(F)F)cc(C(F)(F)F)c1)c1nnn(C)n1 [Example 17, (S)-5-[(3,5-Bis-trifluoromethyl-benzyl)-(2-methyl-2H-tetrazol-5-yl)-amino]-7-methyl-8-trifluoromethyl-2,3,4,5-tetrahydro-benzo[b]azepine-1-carboxylic acid tert-butyl ester] | 73
Cn1nnc(N(Cc2cc(C(F)(F)F)cc(C(F)(F)F)c2)[C@H]2CCCN(CC3CCCC3)c3cc4c(cc32)OC(F)(F)O4)n1 [Example 178, (S)-(3,5-Bis-trifluoromethyl-benzyl)-(5-cyclopentylmethyl-2,2-difluoro-6,7,8,9-tetrahydro-5H-1,3-dioxa-5-aza-cyclohepta[f]inden-9-yl)-(2-methyl-2H-tetrazol-5-yl)-amine] | 128
Cc1cc2c(c(C)c1C(F)(F)F)N(CC1CC1)CCC[C@@H]2N(Cc1cc(C(F)(F)F)cc(C(F)(F)F)c1)c1nnn(C)n1 [Example 148, (S)-(3,5-Bis-trifluoromethyl-benzyl)-(1-cyclopropylmethyl-7,9-dimethyl-8-trifluoromethyl-2,3,4,5-tetrahydro-1H-benzo[b]azepin-5-yl)-(2-methyl-2H-tetrazol-5-yl)-amine] | 224
Cc1cc2c(cc1C(F)(F)F)N(Cc1ccc(C#N)cc1)CCC[C@@H]2N(Cc1cc(C(F)(F)F)cc(C(F)(F)F)c1)c1nnn(C)n1 [Example 192, (S)-4-{5-[(3,5-bis-trifluoromethyl-benzyl)-(2-methyl-2H-tetrazol-5-yl)-amino]-7-methyl-8-trifluoromethyl-2,3,4,5-tetrahydro-benzo[b]azepin-1-ylmethyl}-benzonitrile] | 102
Cc1cc2c(cc1C(F)(F)F)N(CCC(C)(C)CC(=O)O)CCC[C@@H]2N(Cc1cc(C(F)(F)F)cc(C(F)(F)F)c1)c1nnn(C)n1 [Example 32, (S)-5-{5-[(3,5-Bis-trifluoromethyl-benzyl)-(2-methyl-2H-tetrazol-5-yl)-amino]-7-methyl-8-trifluoromethyl-2,3,4,5-tetrahydro-benzo[b]azepin-1-yl}-3,3-dimethyl-pentanoic acid] | 128
CCC(OC(=O)N1CCCC(N(Cc2cc(C(F)(F)F)cc(C(F)(F)F)c2)c2nnn(C)n2)c2cc(C)c(C(F)(F)F)cc21)C(C)C (racemic) [Example 25, (+/−)-5-[(3,5-Bis-trifluoromethyl-benzyl)-(2-methyl-2H-tetrazol-5-yl)-amino]-7-methyl-8-trifluoromethyl-2,3,4,5-tetrahydro-benzo[b]azepine-1-carboxylic acid 1-ethyl-2-methyl-propyl ester] | 142
Cc1c2c(cc3c1N(C[C@H]1CC[C@H](CC(=O)O)CC1)CCC[C@@H]3N(Cc1cc(C(F)(F)F)cc(C(F)(F)F)c1)c1nnn(C)n1)COC2 [Example 165, (S)-(4-{9-[(3,5-Bis-trifluoromethyl-benzyl)-(2-methyl-2H-tetrazol-5-yl)-amino]-4-methyl-1,3,6,7,8,9-hexahydro-2-oxa-5-aza-cyclohepta[f]inden-5-ylmethyl}-cyclohexyl)-acetic acid] | 177
Cc1cc2c(cc1C(F)(F)F)N(CC1CCCC1)CCC[C@@H]2N(Cc1cc(C(F)(F)F)cc(C(F)(F)F)c1)c1nnn(C)n1 [Example 3, (S)-(3,5-bistrifluoromethylbenzyl)-(1-cyclopentylmethyl-7-methyl-8-trifluoromethyl-2,3,4,5-tetrahydro-1H-benzo[b]azepin-5-yl)-(2-methyl-2H-tetrazol-5-yl)amine] | 71
Cc1cc2c(c(C)c1C(F)(F)F)N(C[C@H]1CC[C@H](CC(=O)O)CC1)CCC[C@@H]2N(Cc1cc(C(F)(F)F)cc(C(F)(F)F)c1)c1nnn(C)n1 [Example 153, (S)-(4-{5-[(3,5-Bis-trifluoromethyl-benzyl)-(2-methyl-2H-tetrazol-5-yl)-amino]-7,9-dimethyl-8-trifluoromethyl-2,3,4,5-tetrahydro-benzo[b]azepin-1-ylmethyl}-cyclohexyl)-acetic acid] | 165
Cc1cc(N(Cc2cc(C(F)(F)F)cc(C(F)(F)F)c2)[C@H]2CCCN(C[C@H]3CC[C@H](CC(=O)O)CC3)c3cc(C(F)(F)F)c(C)cc32)on1 [Example 94, (4-{5-[(3,5-Bis-trifluoromethyl-benzyl)-(3-methyl-isoxazol-5-yl)-amino]-7-methyl-8-trifluoromethyl-2,3,4,5-tetrahydro-benzo[b]azepin-1-ylmethyl}-cyclohexyl)-acetic acid] | 154
Cc1cc2c(cc1C(F)(F)F)N(C(=O)OC(C)C)CCC[C@@H]2N(Cc1cc(C(F)(F)F)cc(C(F)(F)F)c1)c1nnn(C)n1 [Example 16, (S)-5-[(3,5-Bis-trifluoromethyl-benzyl)-(2-methyl-2H-tetrazol-5-yl)-amino]-7-methyl-8-trifluoromethyl-2,3,4,5-tetrahydro-benzo[b]azepine-1-carboxylic acid isopropyl ester] | 82
Cn1nnc(N(Cc2cc(C(F)(F)F)cc(C(F)(F)F)c2)[C@H]2CCCN(CC3CCCC3)c3cc4c(cc32)CCCC4)n1 [Example 77, (3,5-Bis-trifluoromethyl-benzyl)-(1-cyclopentylmethyl-2,3,4,5,7,8,9,10-octahydro-1H-naphtho[2,3-b]azepin-5-yl)-(2-methyl-2H-tetrazol-5-yl)-amine] | 229
Cc1cc2c(c(C)c1C(F)(F)F)N(Cc1ccc(C(=O)O)cc1)CCC[C@@H]2N(Cc1cc(C(F)(F)F)cc(C(F)(F)F)c1)c1nnn(C)n1 [Example 202, (S)-4-{5-[(3,5-Bis-trifluoromethyl-benzyl)-(2-methyl-2H-tetrazol-5-yl)-amino]-7,9-dimethyl-8-trifluoromethyl-2,3,4,5-tetrahydro-benzo[b]azepin-1-ylmethyl}-benzoic acid] | 206
